This passage reports Emax results from patent publication US8367835B2, “Cyclic amine-1-carboxylic acid ester derivative and pharmaceutical composition containing the same” (Dainippon Sumitomo Pharma Co., Ltd., priority 2008, dated 2013).

The structures appear in SMILES notation.

The target in one test is T1, TRPV1 (Rattus norvegicus, UniProt O35433).
T1 construct: using cultured rat dorsal root ganglion cells which express TRPV1 abundantly; endogenous in cells; host or cells: primary culture of dorsal root ganglion cells from 7 day old Wistar rat
T1 sequence (O35433 whole entry): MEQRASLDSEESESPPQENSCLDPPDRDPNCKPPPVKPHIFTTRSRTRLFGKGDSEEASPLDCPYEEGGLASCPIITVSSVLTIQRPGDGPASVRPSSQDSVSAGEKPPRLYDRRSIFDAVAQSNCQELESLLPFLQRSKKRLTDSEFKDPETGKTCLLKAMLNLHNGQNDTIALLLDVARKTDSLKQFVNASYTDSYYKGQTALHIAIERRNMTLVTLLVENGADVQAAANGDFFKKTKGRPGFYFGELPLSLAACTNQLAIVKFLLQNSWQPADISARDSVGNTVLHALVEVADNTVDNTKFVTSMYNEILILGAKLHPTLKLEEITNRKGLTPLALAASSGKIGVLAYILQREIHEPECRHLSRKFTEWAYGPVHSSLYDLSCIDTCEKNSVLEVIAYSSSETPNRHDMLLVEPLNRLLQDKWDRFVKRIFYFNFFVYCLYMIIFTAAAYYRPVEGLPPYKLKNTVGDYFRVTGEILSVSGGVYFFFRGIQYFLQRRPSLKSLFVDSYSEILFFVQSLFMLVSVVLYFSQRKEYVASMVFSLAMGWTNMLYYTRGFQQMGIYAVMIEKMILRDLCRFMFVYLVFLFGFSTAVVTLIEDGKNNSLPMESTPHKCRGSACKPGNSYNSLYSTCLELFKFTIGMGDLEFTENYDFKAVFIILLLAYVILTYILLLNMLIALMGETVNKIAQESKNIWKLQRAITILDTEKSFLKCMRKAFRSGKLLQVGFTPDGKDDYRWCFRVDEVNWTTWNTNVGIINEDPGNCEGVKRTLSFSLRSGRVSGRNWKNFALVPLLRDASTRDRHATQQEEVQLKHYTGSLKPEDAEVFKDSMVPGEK
As to the kind of experiment: TRPV1 agonist activity by intracellular calcium level (FLIPR method). Type of test: cell-based. As to conditions: 1 μM; rat dorsal root ganglion primary culture cells; read-out: Value (%) when fluorescence intensity for capsaicin (1 μM) is 100%. The source says: The test is to measure the elevation of intracellular calcium level as the indicator of TRPV1 agonist activity of a test compound using cultured rat dorsal root ganglion cells which express TRPV1 abundantly, and carried out in accordance with the method of Jerman et al. (Jerman, J. C. et al., Comparison of effects of anandamide at recombinant and endogenous rat vanilloid receptors. Br J Anaesth, 2002. 89(6): p. 882-7). More specifically, the dorsal root ganglion was removed from a 7 day old Wistar rat, and the cells were isolated by collagenase-trypsin treatment. Subsequently, the primary cells was cultured in a CO2 incubator controlled at 5% CO2 and 37° C. for 2 days. The culture medium used was Neurobasal™ medium supplemented with L-glutamine, nerve growth factor, N-2-Supplement, Penicillin-Streptomycin, 5-Fluoro-2′-deoxyuridine (culture day 1 only) were added to.
FLIPR^TETRA system (Molecular Devices Corp.) was used to measure the intracellular calcium concentration. As an indicator of TRPV1 agonistic activity, the fluorescence intensity elevation was monitored when a test compound is applied to the rat dorsal root ganglion primary culture cells loaded with a calcium-sensitive fluorescent reagent.
Background: Calcium flux is commonly read through the fluorescence of an indicator in the cells.
Consider `COc1cc(CNC(=O)C2CN(C(=O)Oc3ccccc3C(C)C)C2)ccc1O` [Example 45, 2-isopropylphenyl 3-(4-hydroxy-3-methoxybenzylcarbamoyl)-azetidine-1-carboxylate], for which the Emax at 1 µM was determined as 72%.

For `CCC1(CC)CCC(OC(=O)N2CCC(C(=O)NCc3ccc(O)c(OC)c3)CC2)CC1` [Example 7], the Emax at 1 µM was 90%.

As to `COc1cc(CNC(=O)C2CN(C(=O)O[C@H]3C[C@H](C)CC[C@H]3C(C)C)C2)ccc1O` [Example 21], the Emax at 1 µM was 85%.

Consider `COc1cc(CNC(=O)C2CN(C(=O)O[C@H]3CC[C@@H](C(C)C)CC3)C2)ccc1O` [Example 24], for which the Emax at 1 µM worked out at 84%.

In the case of `CCCC[C@H]1CC[C@H](OC(=O)N2CC(C(=O)NCc3ccc(O)c(OC)c3)C2)CC1` [Example 23], the Emax at 1 µM came to 77%.

Turning to `COc1cc(CNC(=O)C2CCN(C(=O)Oc3ccccc3C3CCCC3)CC2)ccc1O` [Example 42], the Emax at 1 µM is 72%.

As to `COc1cc(CNC(=O)[C@@H]2CCN(C(=O)OC3CCC(C)(C)CC3)C2)ccc1O` [Example 31, 4,4-dimethylcyclohexyl (R)-3-(4-hydroxy-3-methoxybenzylcarbamoyl)-pyrrolidine-1-carboxylate], the Emax at 1 µM was 68%.

For `CC[C@H]1CC[C@@H](OC(=O)N2CC(C(=O)NCc3ccc(O)c(OC)c3)C2)CC1` [Example 15], the Emax at 1 µM worked out at 83%.

Regarding `COc1cc(CNC(=O)C2CCN(C(=O)OCC3CCCCC3)CC2)ccc1O` [Example 40], the Emax at 1 µM was 91%.

Take `COc1cc(CNC(=O)C2CN(C(=O)O[C@@H]3C[C@H](C)CC[C@H]3C(C)C)C2)ccc1O` [Example 20]: the Emax at 1 µM turned out to be 73%.

Turning to `COc1cc(CNC(=O)[C@@H]2CCN(C(=O)O[C@H]3CC[C@@H](C(C)(C)C)CC3)C2)ccc1O` [Example 34], the Emax at 1 µM was found to be 72%.

With `CC[C@H]1CCCC[C@H]1OC(=O)N1CCC(C(=O)NCc2ccc(O)c(OC)c2)CC1` (relative stereo) [Example 13, cis-2-ethylcyclohexyl 4-(4-hydroxy-3-methoxybenzylcarbamoyl)-piperidine-1-carboxylate], the Emax at 1 µM came out at 81%.

`COc1cc(CNC(=O)C2CCN(C(=O)O[C@H]3CC[C@@H](C)CC3)CC2)ccc1O` [Example 3]: the Emax at 1 µM was determined as 80%.

Regarding `CCCC[C@H]1CC[C@@H](OC(=O)N2CC(C(=O)NCc3ccc(O)c(OC)c3)C2)CC1` [Example 22], the Emax at 1 µM turned out to be 80%.

Take `CCC1(CC)CCC(OC(=O)N2CC[C@H](C(=O)NCc3ccc(O)c(OC)c3)C2)CC1` [Example 29]: the Emax at 1 µM is 83%.

For `COc1cc(CNC(=O)C2CCN(C(=O)O[C@H]3CC[C@H](C(C)(C)C)CC3)CC2)ccc1O` [Example 6], the Emax at 1 µM was 80%.

Turning to `COc1cc(CNC(=O)C2CCN(C(=O)O[C@H]3CC[C@@H](C(C)(C)C)CC3)CC2)ccc1O` [Example 5], the Emax at 1 µM is 84%.

With `COc1cc(CNC(=O)C2CN(C(=O)O[C@H]3CCC[C@H](C)C3)C2)ccc1O` [Example 18], the Emax at 1 µM was 86%.

For the compound `COc1cc(CNC(=O)C2CCN(C(=O)Oc3cccc(C(C)C)c3)CC2)ccc1O` [Example 43], the Emax at 1 µM stood at 68%.

As to `COc1cc(CNC(=O)[C@H]2CCN(C(=O)O[C@H]3CC[C@@H](C(C)(C)C)CC3)C2)ccc1O` [Example 30], the Emax at 1 µM was 78%.

Turning to `COc1cc(CNC(=O)[C@H]2CCN(C(=O)OC3CCC(C)(C)CC3)C2)ccc1O` [Example 27, 4,4-dimethylcyclohexyl (S)-3-(4-hydroxy-3-methoxybenzylcarbamoyl)-pyrrolidine-1-carboxylate], the Emax at 1 µM came out at 86%.

For the compound `COc1cc(CNC(=O)C2CCN(C(=O)OC3CCCCCC3)CC2)ccc1O` [Example 39], the Emax at 1 µM stood at 91%.

As to `COc1cc(CNC(=O)C2CCN(C(=O)O[C@H]3CCC[C@H](C)C3)CC2)ccc1O` [Example 10], the Emax at 1 µM worked out at 92%.

As for `COc1cc(CNC(=O)C2CN(C(=O)O[C@H]3CC[C@H](C(C)C)CC3)C2)ccc1O` [Example 25], the Emax at 1 µM was found to be 71%.

With `CC[C@H]1CC[C@@H](OC(=O)N2CC[C@@H](C(=O)NCc3ccc(O)c(OC)c3)C2)CC1` [Example 32], the Emax at 1 µM came out at 78%.

Take `COc1cc(CNC(=O)C2CCN(C(=O)Oc3ccc(C(C)C)cc3)CC2)ccc1O` [Example 44]: the Emax at 1 µM came to 83%.

For the compound `COc1cc(CNC(=O)C2CCN(C(=O)O[C@H]3CC[C@H](C)CC3)CC2)ccc1O` [Example 4], the Emax at 1 µM was determined as 80%.

Regarding `COc1cc(CNC(=O)C2CCN(C(=O)Oc3ccccc3C(C)C)CC2)ccc1O` [Example 41, 2-isopropylphenyl 4-(4-hydroxy-3-methoxybenzylcarbamoyl)-piperidine-1-carboxylate], the Emax at 1 µM turned out to be 83%.

For the compound `COc1cc(CNC(=O)C2CCN(C(=O)O[C@@H]3CCC[C@H](C)C3)CC2)ccc1O` [Example 9], the Emax at 1 µM came out at 83%.

Consider `COc1cc(CNC(=O)C2CN(C(=O)Oc3ccccc3C3CCCC3)C2)ccc1O` [Example 46, 2-cyclopentylphenyl 3-(4-hydroxy-3-methoxybenzylcarbamoyl)-azetidine-1-carboxylate], for which the Emax at 1 µM was found to be 68%.

In the case of `COc1cc(CNC(=O)C2CN(C(=O)OC3CC(C)(C)CC(C)(C)C3)C2)ccc1O` [Example 19], the Emax at 1 µM was 84%.

`C=C(C)[C@@H]1CC[C@@H](C)C[C@H]1OC(=O)N1CC(C(=O)NCc2ccc(O)c(OC)c2)C1` [Example 26, (1R,2S,5R)-2-isopropenyl-5-methylcyclohexyl 3-(4-hydroxy-3-methoxybenzylcarbamoyl)-azetidine-1-carboxylate]: the Emax at 1 µM turned out to be 82%.

For the compound `CC[C@H]1CC[C@@H](OC(=O)N2CC[C@H](C(=O)NCc3ccc(O)c(OC)c3)C2)CC1` [Example 28], the Emax at 1 µM was found to be 81%.

Turning to `CCC1(CC)CCC(OC(=O)N2CC[C@@H](C(=O)NCc3ccc(O)c(OC)c3)C2)CC1` [Example 33], the Emax at 1 µM is 73%.

For the compound `COc1cc(CNC(=O)C2CCN(C(=O)OC3CCCCC3)CC2)ccc1O` [Example 48, cyclohexyl 4-(4-hydroxy-3-methoxybenzylcarbamoyl)-piperidine-1-carboxylate], the Emax at 1 µM amounted to 77%.

Regarding `COc1cc(CNC(=O)C2CCN(C(=O)O[C@@H]3C[C@H](C)C[C@H](C)C3)CC2)ccc1O` [Example 12], the Emax at 1 µM was determined as 92%.

Staying with this test, now noted: read-out: Value (%) when fluorescence intensity for capsaicin (1 μM) is 100%, 1 μM; rat dorsal root ganglion primary culture cells.
For `COc1cc(CNC(=O)C2CCN(C(=O)O[C@H]3CCCC[C@@H]3C)CC2)ccc1O` (relative stereo) [Example 47, (1S*,2S*)-2-methylcyclohexyl 4-(4-hydroxy-3-methoxybenzylcarbamoyl)-piperidine-1-carboxylate], the Emax at 1 µM was determined as 85%.

As to `COc1cc(CNC(=O)C2CN(C(=O)O[C@H]3CC[C@H](C(C)(C)C)CC3)C2)ccc1O` [Example 17], the Emax at 1 µM was 82%.

In the case of `COc1cc(CNC(=O)C2CCN(C(=O)O[C@@H]3CCCC[C@@H]3C)CC2)ccc1O` [Example 11], the Emax at 1 µM came out at 94%.
